Results on eight molecules are retold here after PMC6321014, “Effects of Toona sinensis Leaf Extract and Its Chemical Constituents on Xanthine Oxidase Activity and Serum Uric Acid Levels in Potassium Oxonate-Induced Hyperuricemic Rats” (Molecules, 2018).

The inhibition is the share of the control response that was lost under treatment. Usually IC50 stands for the concentration that gives 50% inhibition. A word on the Ki: it is a measure of affinity in units of concentration, obtained from inhibition or displacement.

In assay [1] the target is T1, xanthine oxidase (XO) enzyme (bovine milk) (Bos taurus, UniProt P80457).
T1 construct: 20 µL of 0.2 unit XO enzyme (bovine milk) in buffer; from tissue; host or cells: bovine milk
In words: In vitro xanthine oxidase (XO) assay, uric acid formation at 295 nm with xanthine as substrate. Type of assay: biochemical. As to conditions: for Xanthine Oxidase Kinetic Mode: Lineweaver-Burk and Dixon plots; for inhibition at 100 µM: read-out: Xanthine Oxidase Inhibition %; for IC50: repeated three times.
Protocol: We subsequently analyzed the type of inhibition using both Lineweaver–Burk (Figure 2C) and Dixon (Figure 2D) plots.
XO activity was assayed spectrophotometrically on a Spectra Max M2 microplate reader, using published experimental procedures, with slight modifications. First, 135 µL of 100 mM sodium pyrophosphate buffer (HCl, pH 7.5), 20 µL of 0.2 unit XO enzyme (bovine milk) in buffer, and 5 µL of sample (test extract or compound) in DMSO were mixed at 37 °C. The reaction was started by adding 40 µL of substrate (0.5 mM xanthine) in buffer to the mixture. The reaction mixture (200 µL) was incubated at 37 °C in a 300 µL well plate, and the UV absorbance was determined at 295 nm.

The test system of assay [2] is potassium oxonate-induced hyperuricemic rats. Nature of the assay: Serum uric acid levels in potassium oxonate (PO)-induced hyperuricemic rats. The format is in vivo, rat (male Sprague-Dawley). As to conditions: for effect on serum uric acid levels (in words): 40 mg/kg, PO-induced hyperuricemic rats. The method, then:
Male Sprague–Dawley rats (7 weeks old) were purchased from Orient Bio (Seongmam, Korea) and were housed at a temperature of 22 ± 1 °C with 50 ± 10% humidity under a 12 h light/dark cycle with free access to a laboratory diet and water. The experimental design was approved by the Committee on Animal Care of the Korea Institute of Oriental Medicine, and all experiments were performed in accordance with committee guidelines. The uricase inhibitor PO was administered to induce hyperuricemia. The rats were divided into the following five groups (n = 6/group): (1) Normal control group; […] (3) PO + 300 mg/kg TSE group; […] Blood samples were collected via cardiac puncture under anesthesia 2 h after oral treatment. Serum was obtained by centrifugation of blood at 3000× g for 10 min at 4 °C. The separated serum was stored at −80 °C until analysis. Serum uric acid levels were determined by an enzymatic-colorimetric method using a commercial assay kit (Biovision, Milpitas, CA, USA) according to the manufacturer’s protocol.

Assay [3] deals with T1, xanthine oxidase (XO) enzyme (bovine milk). To be noted: cited from earlier work; for XO inhibitory effect (in words): literature statement, ref 23 (Cos et al.).
Where [4] appears, read: isolated compounds and controls, read-out: Xanthine Oxidase IC50.
The mark [5] stands for this setting: sample concentration 100 µM for each compound.

Molecules are shown by their SMILES. Where “and” joins values, the source holds several entries; their conditions need not be identical. Equal entries are not always repeated. Entries after “also recorded” stand apart in the source; their conditions may differ. Where two headings read alike, the source gives them in different places.

T1 sequence (P80457 whole entry): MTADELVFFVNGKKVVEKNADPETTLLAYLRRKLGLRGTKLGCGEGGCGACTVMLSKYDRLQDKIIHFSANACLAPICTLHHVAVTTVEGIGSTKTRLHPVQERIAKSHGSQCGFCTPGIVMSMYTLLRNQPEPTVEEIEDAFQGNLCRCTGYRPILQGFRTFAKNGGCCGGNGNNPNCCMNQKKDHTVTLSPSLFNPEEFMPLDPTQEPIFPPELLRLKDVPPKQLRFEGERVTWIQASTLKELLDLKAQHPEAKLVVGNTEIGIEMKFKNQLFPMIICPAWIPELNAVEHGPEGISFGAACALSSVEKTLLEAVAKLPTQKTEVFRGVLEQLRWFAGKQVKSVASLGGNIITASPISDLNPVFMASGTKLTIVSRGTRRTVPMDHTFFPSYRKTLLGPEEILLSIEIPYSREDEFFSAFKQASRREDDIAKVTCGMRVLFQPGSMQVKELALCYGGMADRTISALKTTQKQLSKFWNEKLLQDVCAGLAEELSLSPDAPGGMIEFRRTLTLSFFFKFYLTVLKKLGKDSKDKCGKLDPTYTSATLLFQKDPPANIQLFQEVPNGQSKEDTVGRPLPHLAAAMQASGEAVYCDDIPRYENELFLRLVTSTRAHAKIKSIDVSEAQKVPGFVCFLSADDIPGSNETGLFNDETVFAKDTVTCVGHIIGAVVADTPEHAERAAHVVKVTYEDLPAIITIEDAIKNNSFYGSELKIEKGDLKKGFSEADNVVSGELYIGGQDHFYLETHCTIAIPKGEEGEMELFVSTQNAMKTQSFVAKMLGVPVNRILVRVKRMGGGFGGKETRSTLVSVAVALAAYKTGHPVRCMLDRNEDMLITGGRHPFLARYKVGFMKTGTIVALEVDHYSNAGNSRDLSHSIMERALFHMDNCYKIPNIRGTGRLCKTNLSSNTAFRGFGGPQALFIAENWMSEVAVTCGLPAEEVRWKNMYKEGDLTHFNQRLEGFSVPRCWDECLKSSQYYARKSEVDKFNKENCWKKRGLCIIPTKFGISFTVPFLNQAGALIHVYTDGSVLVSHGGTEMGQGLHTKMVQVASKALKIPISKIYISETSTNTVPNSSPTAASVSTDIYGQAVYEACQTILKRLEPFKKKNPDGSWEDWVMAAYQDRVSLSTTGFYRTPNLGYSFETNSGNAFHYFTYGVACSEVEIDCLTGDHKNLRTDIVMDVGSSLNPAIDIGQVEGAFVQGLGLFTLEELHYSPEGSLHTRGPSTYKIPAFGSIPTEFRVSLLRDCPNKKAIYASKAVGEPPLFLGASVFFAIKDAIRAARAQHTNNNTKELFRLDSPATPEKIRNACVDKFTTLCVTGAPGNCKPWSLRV

Regarding `Oc1ncnc2[nH]ncc12` [Allopurinol, allopurinol, reference compound], in assay [1], the “Xanthine Oxidase Kinetic Mode” value is “Competitive” and the inhibition at 100 µM is more than 98%. Besides, in assay [2] (10 mg/kg oral gavage, positive control, rats), the “decrease in serum uric acid level” value worked out at 43.5%.

In the case of `O=c1[nH]c(=O)c2c[nH]nc2[nH]1` [Oxypurinol, oxypurinol, reference compound], the half-maximal inhibitory concentration (IC50) in assay [1] (setting [4]) amounted to 28.4 ± 0.5 µM. In assay [1] (setting [5]), the inhibition at 100 µM is 87.6 ± 0.9%. For the same molecule, the “XO inhibitory activity compared to allopurinol (in words)” value in assay [3] (XO screening, ref 25 (Tamta et al.)) is on record as “much lower inhibitory activity than allopurinol”.

Consider `C[C@@H]1O[C@@H](OC[C@H]2O[C@@H](Oc3c(-c4ccc(O)c(O)c4)oc4cc(O)cc(O)c4c3=O)[C@H](O)[C@@H](O)[C@@H]2O)[C@H](O)[C@H](O)[C@H]1O` [Compound 1, quercetin-3-O-rutinoside], for which the concentration for half-maximal inhibition (IC50) in assay [1] (setting [4]) was more than 100 µM. Further, in assay [1] (setting [5]), the inhibition at 100 µM is 42.9 ± 1.4%.

For `O=c1c(O)c(-c2ccc(O)c(O)c2)oc2cc(O)cc(O)c12` [quercetin], the “XO inhibitory effect (in words)” value in assay [3] is listed as “strong XO inhibitory effects”.

With `O=c1c(O[C@@H]2O[C@H](CO)[C@@H](O)[C@H](O)[C@H]2O)c(-c2ccc(O)c(O)c2)oc2cc(O)cc(O)c12` [Compound 2, quercetin-3-O-β-D-glucopyranoside], in assay [1] (setting [4]), the IC50 was more than 100 µM. Also, the inhibition at 100 µM in assay [1] (setting [5]) was 47.8 ± 1.1%.

Turning to `O=c1c(O)c(-c2ccc(O)cc2)oc2cc(O)cc(O)c12` [kaempferol], in assay [3], the “XO inhibitory effect (in words)” value is given as “strong XO inhibitory effects”.

`O=C(OC[C@H]1O[C@@H](OC(=O)c2cc(O)c(O)c(O)c2)[C@H](OC(=O)c2cc(O)c(O)c(O)c2)[C@@H](OC(=O)c2cc(O)c(O)c(O)c2)[C@@H]1OC(=O)c1cc(O)c(O)c(O)c1)c1cc(O)c(O)c(O)c1` [Compound 3, 1,2,3,4,6-penta-O-galloyl-β-D-glucopyranose]: the inhibition constant Ki in assay [1] (Dixon plots, substrate 50, 100, 200 µM, read-out: Xanthine Oxidase Ki (inhibition constant)) was found to be 3.1 µM. In assay [1], the “Xanthine Oxidase Kinetic Mode” value was “noncompetitive inhibitor”. The “reversibility of XO inhibition” value in assay [1] (compound 0-12.5 μM versus XO 0-0.2 unit/mL) is listed as “reversible XO inhibitor”. The IC50 in assay [1] (setting [4]) was 2.8 µM and 2.79 µM. Besides, the inhibition at 100 µM in assay [1] (setting [5]) was 96.4 ± 0.7%. Also, the “reduction in serum uric acid levels compared to the PO group” value in assay [2] (40 mg/kg oral gavage 1 h after PO, blood 2 h after treatment, rats) was found to be 20.7%. Moreover, the “effect on serum uric acid levels (in words)” value in assay [2] is “significantly decreased serum uric acid levels; also recorded: lowered serum uric acid levels”.

On to `CC1OC(Oc2c(-c3ccc(O)c(O)c3)oc3cc(O)cc(O)c3c2=O)C(O)C(O)C1O` [Compound 4, quercetin-3-O-α-L-rhamnopyranoside], for which, in assay [1] (Xanthine Oxidase IC50, isolated compounds and controls), the IC50 was more than 100 µM. Also, the inhibition at 100 µM in assay [1] came out at 38.9 ± 1.9%. In addition, the “effect on serum uric acid levels (in words)” value in assay [2] is on record as “no effect”.
